{"source": "paper PMC5072831", "about": "“Novel Nuclear Factor-KappaB Targeting Peptide Suppresses β-Amyloid Induced Inflammatory and Apoptotic Responses in Neuronal Cells” (PLoS ONE, 2016)", "key": {"[1]": {"test_system": "NF-κΒ p65", "conditions": "ref [61]; cited from earlier work", "from_the_text": "There is increasing interest in developing disease modifying agents for neurodegenerative diseases based on molecular pathogenesis. […] As opposed to high throughput screening, computational design of interface peptide mimics followed by functional evaluation represe ..."}, "[2]": {"test_system": "caspase-3", "conditions": "ref [70], [71]; cited from earlier work", "from_the_text": "Multiple caspases including caspase-3 and caspase-9 are transcriptionally elevated in AD [66, 67]."}, "[3]": {"test_system": "nuclear p50", "test": "Nuclear p50 in HFB", "type": "cell-based, human", "conditions": "HFB exposed to Aβ1–42", "protocol": "(§1) Primary HFB exposed to Aβ1–42 and treated with GA or CP as above was harvested at the end of 4h. Nuclear and cytoplasmic fractions were extracted using the CelLytic™ NuCLEAR™ Extraction Kit (Sigma) following manufacturer’s protocol. Five microgram of nuclear extracts was incubated in a 96-well plate coated with oligonucleotides containing the NF-κΒ consensus nucleotide sequence (5’-[…]-3’). The activated NF-κΒ bound to DNA was detected by anti-p65 antibody followed by a peroxidase coupled secondary antibody and substrate using the TransAM kit protocol (Active Motif). Nuclear extracts of Raji cells was used as the positive control.\nWe measured nuclear p65 using activated NF-κΒ specific ELISA and calculated the p65 DNA binding activity as the ratio of absorbance form Aβ1–42 stimulated cells to that of unstimulated cells. […] There was a trend towards decreased nuclear p65 in Aβ1–42 exposed cells treated with GA-1 (6.13+/-1.3) and GA-2 (6.7+/-1.5) as compared to untreated cells (14.75+/-3.5). Nuclear p65 of Aβ1–42 exposed cells treated with CP-1, CP-2 and CP-3 measured 6.8+/-3.9, 10.2+/-2.9 and 10.1+/-3.7 respectively (Fig 6H). […] Although we observed slightly elevated nuclear p50 in Aβ1–42 (6.15+/-1.2) than in unexposed cells (0.5+/-2.7), no difference was observed between GA peptide of CP treated cells and untreated cells (data not shown)."}, "[4]": {"test_system": "IL-6 mRNA", "test": "IL-6 mRNA in HFB by quantitative real-time PCR", "type": "cell-based, human", "conditions": "Aβ1–42 exposure alone", "protocol": "(§2) Primary HFB exposed to Aβ1–42 and treated with GA or CP as above was harvested at the end of 24h. Total cellular RNA was isolated using Qiagen kit (Invitrogen, Carlsbad, CA) following manufacturer's protocol. Total RNA (2–4 μg) was reverse transcribed using iScript cDNA synthesis kit (Biorad, CA). The concentration of the cDNA was measured at 260 and 280 nm by the Gensys5 model UV-visible spectrophotometer (Thermoelectronic Corp.,CA). Real-time PCR was performed by using the SYBR green/ROX qPCR master mix (SABiosciences, Frederick, MD) according to manufacturer's recommendations on the CFX96 Touch™ Real-Time PCR Detection System (Biorad laboratories, Hercules, California, USA). Each reaction contains 2×12.5 μl of SYBR green Master Mix, 1 μl of 10 μM of primers and 50 ng of the cDNA, to a total volume of 25 μl. The thermal cycling conditions included an initial denaturation step at 50°C for 2 min, 95°C for 3 min, 39 cycles at 95°C for 30 s, annealing temperature at 54°C for 30 s and extension at 72°C for 30s. The primers are F-GAPDH-5′-[…]-3′; R-GAPDH:5′-G […]-3′(102bp); F-IL-1β:5′-[…]-3′; R-IL-1β:5′[…]-3′ (89 bp); F-IL-6:5′-[…] […] The difference in each gene-specific threshold between the samples from vehicle treated and GA or CP treated cells was determined to obtain the relative change in the specific mRNA. The magnitude of change in the mRNA was expressed as 2^ΔΔCt. […]"}, "[5]": {"test_system": "human fetal brain cells (HFB)", "test": "CTG viability in human primary mixed brain cultures (HFB)", "type": "cell-based", "protocol": "HFB were prepared and cultured as described (S1 and S2 Docs). Briefly, cells were cultured in Neurobasal medium (Invitrogen) without phenol red supplemented with 1xB27, […], 1xantibiotic cocktail, 5ng/mL recombinant fibroblast growth factor 2 (bFGF) (Invitrogen), and 2μL/mL Normocin (InVivoGen, San Diego, CA, USA). Cells were counted and seeded onto poly-D-lysine (Sigma-Aldrich) coated 24-well plates (Corning, Lowell, MA, USA) at 1.5x10^5 cells per well and maintained at 37°C in a 5% CO2 incubator. Half media changes were performed every 4th day of culture and morphology was monitored via phase contrast microscopy. Culture medium was removed from cells on day 17 (DIV17) and replaced with Neurobasal medium with B27. […] Cells and conditioned media were harvested and stored for further analysis. Relative ATP concentration was measured using the CTG kit (Promega). Data is presented as ΔRLU = RLU of Aβ1–42 exposed cells–RLU unexposed cells. Conditioned media collected were assessed for specific cytokines using the OptEIA kits (BD Biosciences)."}, "[6]": {"test_system": "IL-1β mRNA", "test": "IL-1β mRNA in HFB by quantitative real-time PCR", "type": "cell-based, human", "conditions": "Aβ1–42 exposure alone", "protocol": "as §2"}, "[7]": {"test_system": "activated p65 NF-κΒ subunit", "test": "NF-κB assay, nuclear p65 DNA binding (TransAM) in HFB", "type": "cell-based, human", "conditions": "HFB exposed to Aβ1–42, 4 h, 5μg nuclear extract, TransAM ELISA; average+/-SD from two experiments", "protocol": "as §1\nFig 6 Effect of GILZ analog (GA) treatment on human fetal brain cells (HFB): (A,B): Select GA decrease metabolic activity in Aβ1–42 exposed HFB. […] Cytoplasmic extracts of cells collected at 24h was assessed for viability by CTG assay. […] HFB cells were cultured as above and culture medium collected at 24hrs was assessed for pro-inflammatory (IL-1β, IL-6 and IL-17) (C, D, E and F) and anti-inflammatory (TGF-β) (G) cytokines. […] The p65 DNA binding activity was calculated as the ratio of absorbance from Aβ1–42 stimulated cells to that of unstimulated cells. […]\nWe measured nuclear p65 using activated NF-κΒ specific ELISA and calculated the p65 DNA binding activity as the ratio of absorbance form Aβ1–42 stimulated cells to that of unstimulated cells. […]"}, "[8]": {"test_system": "Caspase-3 mRNA", "test": "Caspase-3 mRNA in HFB by quantitative real-time PCR", "type": "cell-based, human", "conditions": "Aβ1–42 exposure alone", "protocol": "as §2"}, "[9]": {"test_system": "Caspase-9 mRNA", "test": "Caspase-9 mRNA in HFB by quantitative real-time PCR", "type": "cell-based, human", "conditions": "Aβ1–42 exposure alone", "protocol": "as §2"}, "[10]": {"conditions": "ref [67]; cited from earlier work"}}, "data": [{"compound": "C=C1C(=O)[C@]23C[C@H]1C[C@H](OC(C)=O)[C@H]2[C@]1(C)[C@@H](OC(C)=O)C[C@H](O)C(C)(C)[C@H]1C(=O)[C@@H]3OC(C)=O", "note": "[adenanthin]", "values": [{"measurement": "effect in AD models", "setting": "[1]", "value": "interact with NF-κΒ p65, suppress inflammation and cytotoxicity in AD models"}]}, {"compound": "COc1ccc2[nH]cc(CCNC(C)=O)c2c1", "note": "[melatonin]", "values": [{"measurement": "effect on Aβ-induced caspase-3 activity", "setting": "[2]", "value": "suppress Aβ-induced caspase-3 activity"}]}, {"compound": "Oc1ccc(/C=C/c2cc(O)cc(O)c2)cc1", "note": "[resveratrol]", "values": [{"measurement": "effect in AD models", "setting": "[1]", "value": "interact with NF-κΒ p65, suppress inflammation and cytotoxicity in AD models"}]}, {"compound": "Aβ1–42: Purified Aβ1–42 peptide (American Peptide company), used as stimulus", "values": [{"measurement": "nuclear p50", "setting": "[3]", "value": "6.15+/-1.2"}, {"measurement": "IL-6 mRNA (in words)", "setting": "[4]", "value": "upregulation of mRNA for IL-1β and IL-6"}, {"measurement": "average RLU of cultures exposed to Aβ1–42", "setting": "[5]; lower end over different experiments", "value": "6067.25+/-903.05"}, {"measurement": "average RLU of cultures exposed to Aβ1–42", "setting": "[5]; upper end over different experiments", "value": "11574.25+/- 4139.3"}, {"measurement": "IL-1β mRNA (in words)", "setting": "[6]", "value": "upregulation of mRNA for IL-1β"}, {"measurement": "nuclear p65 DNA binding activity (ratio of absorbance, Aβ1–42 stimulated / unstimulated)", "setting": "[7]", "value": "14.75+/-3.5"}, {"measurement": "caspase 3 mRNA (in words)", "setting": "[8]", "value": "upregulation of mRNA for caspase 3"}, {"measurement": "caspase 9 mRNA (in words)", "setting": "[9]", "value": "upregulation of mRNA for caspase 3 and caspase 9"}]}, {"compound": "oncocin", "values": [{"measurement": "influx into CNS and distribution in brain parenchyma", "setting": "[10]", "value": "significant influx into CNS and distribution within the brain parenchyma"}]}]}
